Laboratory results published in ChEMBL document CHEMBL1201862, “PubChem BioAssay data set” (2004).
Active and inactive are the calls of the source. Rule as the data show it, for most assays here: actives have a measured EC50 and inactives only a lower limit.

Assays:
Protein skinhead-1 = target: T1, Protein skinhead-1 (Caenorhabditis elegans, UniProt P34707); type: functional
T1 sequence (P34707 whole entry): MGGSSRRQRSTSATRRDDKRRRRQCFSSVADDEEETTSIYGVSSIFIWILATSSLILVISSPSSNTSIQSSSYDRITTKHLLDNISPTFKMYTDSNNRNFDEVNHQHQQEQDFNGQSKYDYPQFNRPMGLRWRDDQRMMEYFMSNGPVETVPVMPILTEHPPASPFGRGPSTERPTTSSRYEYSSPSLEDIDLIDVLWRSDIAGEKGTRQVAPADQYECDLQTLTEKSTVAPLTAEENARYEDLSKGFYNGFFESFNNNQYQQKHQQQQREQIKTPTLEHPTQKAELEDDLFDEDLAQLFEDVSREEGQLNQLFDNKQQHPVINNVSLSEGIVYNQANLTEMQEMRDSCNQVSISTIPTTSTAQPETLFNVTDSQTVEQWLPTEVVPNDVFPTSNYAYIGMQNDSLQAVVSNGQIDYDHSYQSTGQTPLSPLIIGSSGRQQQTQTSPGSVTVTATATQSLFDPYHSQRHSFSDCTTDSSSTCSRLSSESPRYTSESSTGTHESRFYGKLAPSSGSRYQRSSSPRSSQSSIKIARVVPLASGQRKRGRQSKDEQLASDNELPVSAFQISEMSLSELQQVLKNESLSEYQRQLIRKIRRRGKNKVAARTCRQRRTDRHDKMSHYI

[1] = C. albicans growth with fluconazole, confirmation, fluorescence, retest (AID 2467); type: functional, cell-based
[2] = NIH-3T3 fibroblast cytotoxicity, dose response, cytotoxicity control, cell-based, fluorescence, Alamar Blue, secondary assay (AID 2327); type: functional;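 also: NIH-3T3 mouse fibroblasts cultured with fluconazole at 8 µg/mL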
[3] = target: Luciferin 4-monooxygenase (Photinus pyralis, UniProt P08659); test: firefly luciferase enzyme inhibitors, dose response, biochemical, luminescence (AID 1891)
[4] = Luminescence Cell-Based Dose Confirmation HTS to Identify Inhibitors of Platelet Dense Granule Release. [Related pubchem assays: 1663 (Primary HTS), 1678 (Summary of Project)]; type: functional
[5] = target: T2, Corticotropin-releasing factor receptor 2/Corticotropin-releasing factor-binding protein (Homo sapiens, UniProt P24387+Q13324); test: activators of CRF receptor 2 with binding protein – uHTS hits, confirmation (AID 602473); type: functional; conditions: read-out: EC50_Mean
T2 sequence (Q13324 whole entry): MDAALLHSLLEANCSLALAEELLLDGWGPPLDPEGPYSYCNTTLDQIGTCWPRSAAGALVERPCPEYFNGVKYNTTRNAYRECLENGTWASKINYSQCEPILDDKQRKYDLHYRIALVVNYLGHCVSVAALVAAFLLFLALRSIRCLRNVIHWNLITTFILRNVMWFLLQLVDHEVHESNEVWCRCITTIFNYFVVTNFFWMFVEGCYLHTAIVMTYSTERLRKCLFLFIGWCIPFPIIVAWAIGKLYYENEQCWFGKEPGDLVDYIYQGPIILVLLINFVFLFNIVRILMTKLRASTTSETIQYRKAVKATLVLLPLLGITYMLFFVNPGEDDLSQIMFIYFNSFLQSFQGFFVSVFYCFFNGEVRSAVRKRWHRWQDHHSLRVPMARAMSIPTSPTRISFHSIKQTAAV
T2 sequence (P24387 whole entry): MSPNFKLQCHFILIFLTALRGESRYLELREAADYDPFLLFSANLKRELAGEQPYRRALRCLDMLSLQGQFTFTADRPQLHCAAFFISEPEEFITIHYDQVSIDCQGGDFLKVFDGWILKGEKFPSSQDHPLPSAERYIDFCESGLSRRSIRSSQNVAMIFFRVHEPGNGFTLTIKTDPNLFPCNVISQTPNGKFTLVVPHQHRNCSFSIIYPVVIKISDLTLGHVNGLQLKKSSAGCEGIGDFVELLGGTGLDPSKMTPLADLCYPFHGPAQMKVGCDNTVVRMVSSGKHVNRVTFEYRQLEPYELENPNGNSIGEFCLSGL

[6] = target: T2, Corticotropin-releasing factor receptor 2/Corticotropin-releasing factor-binding protein; test: Dose Response confirmation of uHTS hits for small molecule antagonists of the CRF-binding protein and CRF-R2 receptor complex.; type: functional; conditions: read-out: IC50_Mean
H9c2 = test: cells; type: functional, cell-based; conditions: Rattus norvegicus, H9c2, Myocardium;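 also: confirmatory concentration-response retest of ultra-high-throughput screening hits for modulation of myocardial damage; cell death induced by hydrogen peroxide oxidative stress; compound pretreatment for 60 min then peroxide exposure for 2 h; potency is for protecting the cells against peroxide damage rather than for killing them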
[7] = HEp-2 cell cytotoxicity, dose response, cytotoxicity control for RSV inhibitor project, HTS (AID 2410); type: functional; conditions: human respiratory syncytial virus
[8] = Luminescence Cell-Based Dose Response HTS to Identify Activators of Luciferase Translation or Activity in H4 […] Cells. [Related pubchem assays: 1829 (Project Summary), 1814 (Primary HTS)]; type: functional
H4 = test: Luminescence Cell-Based Dose Response HTS to Identify Activators of 5'UTR Stem-Loop Driven Prion Protein mRNA Translation in H4 Neuroglioblastoma Cells. [Related pubchem assays: 1829 (Project Summary), 1814 (Primary HTS)]; type: functional; conditions: Homo sapiens
[9] = Luminescence Cell-Based Dose Confirmation HTS to Identify Activators of 5'UTR Stem-Loop Driven Alpha-Synuclein mRNA Translation in H4 Neuroglioblastoma Cells. [Related pubchem assays: 1829 (Project Summary), 1814 (Primary HTS)]; type: functional
[10] = cytotoxicity toward NIH3T3 fibroblasts, dose response, counter-screen, cell-based, ATP luminescence, mouse fibroblasts (AID 2010); type: functional;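 also: cells exposed to compound for about 90 hours before reading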
[11] = inhibitors of intracellular T. cruzi replication, confirmation, NIH3T3 host cells, beta-gal luminescence (AID 2044); type: functional, cell-based;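 also: intracellular parasites grown in NIH/3T3 mouse fibroblasts as host cells; luminescent beta-galactosidase reporter signal from transgenic T. cruzi replicating inside host cells; inhibitors lower the luminescence signal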
[12] = target: T3, Heat shock factor protein 1 (Mus musculus, UniProt P38532); test: HSF1 potentiators in luciferase reporter cells, confirmation, cell-based, NIH3T3, luminescence, dose retest (AID 435004); type: functional;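 also: stress induced by proteasome inhibitor MG132 added 30 min after compound; luciferase reporter driven by HSF1 response element in NIH3T3 cells; actives raise luminescence as potentiators of the MG132 stress response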
T3 sequence (P38532 whole entry): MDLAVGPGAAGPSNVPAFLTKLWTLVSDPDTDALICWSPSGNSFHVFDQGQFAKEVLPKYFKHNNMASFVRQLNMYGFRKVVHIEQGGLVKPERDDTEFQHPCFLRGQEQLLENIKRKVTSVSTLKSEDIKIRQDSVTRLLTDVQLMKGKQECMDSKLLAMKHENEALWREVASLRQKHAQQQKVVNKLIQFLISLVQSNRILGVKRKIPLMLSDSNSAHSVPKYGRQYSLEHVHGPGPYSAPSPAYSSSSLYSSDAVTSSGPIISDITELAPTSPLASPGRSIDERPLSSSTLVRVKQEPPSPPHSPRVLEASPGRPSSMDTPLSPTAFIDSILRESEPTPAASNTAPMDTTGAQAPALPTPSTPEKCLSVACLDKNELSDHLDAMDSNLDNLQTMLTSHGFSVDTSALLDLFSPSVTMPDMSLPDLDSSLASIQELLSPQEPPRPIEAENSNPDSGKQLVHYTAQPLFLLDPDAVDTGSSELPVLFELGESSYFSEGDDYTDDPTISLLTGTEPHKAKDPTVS

Sequence of Luciferin 4-monooxygenase (P08659 whole entry): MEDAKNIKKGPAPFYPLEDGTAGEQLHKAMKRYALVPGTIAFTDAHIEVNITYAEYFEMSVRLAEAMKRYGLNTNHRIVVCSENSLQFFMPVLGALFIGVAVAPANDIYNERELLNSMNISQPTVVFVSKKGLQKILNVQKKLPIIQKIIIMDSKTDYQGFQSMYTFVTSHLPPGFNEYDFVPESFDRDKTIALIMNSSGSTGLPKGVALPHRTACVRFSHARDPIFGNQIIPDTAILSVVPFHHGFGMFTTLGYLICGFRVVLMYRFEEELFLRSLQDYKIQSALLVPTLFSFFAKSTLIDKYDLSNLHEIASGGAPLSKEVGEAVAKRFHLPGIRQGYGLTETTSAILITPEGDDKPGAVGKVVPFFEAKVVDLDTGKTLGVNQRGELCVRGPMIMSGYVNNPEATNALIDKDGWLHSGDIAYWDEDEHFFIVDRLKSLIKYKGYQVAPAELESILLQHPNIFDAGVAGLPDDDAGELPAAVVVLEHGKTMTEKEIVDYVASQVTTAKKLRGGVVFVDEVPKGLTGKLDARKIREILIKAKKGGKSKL

O=C1c2cc(Br)ccc2OC2C=CC=CC12 (stereo not drawn)
IC50 (Protein skinhead-1): 81 µM (inactive)

CC(C)n1c(N2CCN(C(=O)Nc3ccc(Cl)cc3)CC2)nc2ccccc21
EC50 [1]: > 38 µM (not active) | EC50 [2]: 140 µM (active)

COc1ccc(NC(=O)c2cc(S(=O)(=O)N3CCc4ccccc43)cn2C)cc1
EC50 [3]: > 112 µM (not active) | EC50 [4]: > 112 µM (not active)

O=c1c2ccccc2nc(/C=C/c2ccc(F)cc2)n1-c1ccccn1
EC50 [3]: > 112 µM (not active) | EC50 [4]: > 112 µM (not active)

O=C(COC(=O)c1ccc(Cl)nc1)Nc1ccc2ccccc2c1
IC50 (Protein skinhead-1): > 100 µM (inactive)

Cc1nc2sccn2c(=O)c1S(=O)(=O)N1CCN(c2ccc(F)cc2)CC1
EC50 [3]: > 112 µM (not active) | EC50 [4]: > 112 µM (not active)

O=C(NCCO)c1c(O)c2cccc3c2n(c1=O)CC3
EC50 [5]: > 53 µM (inactive) | IC50 [6]: > 47.1 µM (inactive)

Cc1cccc(-n2c(SCc3cc(=O)n4ccsc4n3)nc3ccccc3c2=O)c1
IC50 (H9c2): > 79 µM (inactive) | CC50 [7]: 39.5 µM (active)

CC(=O)N1CCN(c2ccc(NC(=O)c3ccc(C(C)(C)C)cc3)cc2)CC1
EC50 [1]: 7.14 µM (active) | EC50 [2]: > 160 µM (inactive)

CC(=O)Nc1cc(C(N)=O)c(Cl)cc1Cl
EC50 [5]: > 53 µM (inactive) | IC50 [6]: > 47.1 µM (inactive)

Clc1ccc(-c2[nH]nc3c2CCCC3)cc1
EC50 [8]: 16.2 µM (active) | CC50 [7]: 37.1 µM (active) | EC50 (H4): 54.4 µM (active) | EC50 [9]: 10.4 µM (active)

O=C(NCCCN1CCCCC1)c1ccc2c(=O)n(CCc3ccccc3)c(=O)[nH]c2c1
EC50 [8]: 12.2 µM (active) | EC50 (H4): 93.9 µM (active) | EC50 [9]: > 120 µM (not active)

[O-][n+]1c2ccccc2c2n1CCCN=C2c1ccc(Cl)cc1
EC50 [8]: 8.34 µM (active) | EC50 (H4): 41.8 µM (active) | EC50 [9]: 7.98 µM (active)

Cc1ccccc1[S+]([O-])Cc1ccc(C(=O)N2CCN(C(=O)c3ccco3)CC2)o1 (stereo not drawn)
IC50 (Protein skinhead-1): > 100 µM (inactive)

C=CCn1c(Oc2ccccc2)nc2c1c(=O)n(C)c(=O)n2C
EC50 [5]: > 53 µM (inactive)

COc1cc2nc(SCc3ccc(Cl)cc3Cl)n(Cc3cccs3)c(=N)c2cc1OC
EC50 [10]: > 60 µM (inconclusive) | EC50 [1]: > 38 µM (not active) | EC50 [11]: 2.09 µM (active) | EC50 [2]: > 160 µM (inactive)

CCCc1nc2sc3c(O)ncnc3c2c2c1CCCC2
EC50 [3]: > 112 µM (not active) | EC50 [4]: > 112 µM (not active)

Cc1ccc(NC(=O)c2cc(=O)c3ccccc3o2)cc1
EC50 [8]: 17.9 µM (active) | EC50 (H4): 21.6 µM (active) | EC50 [9]: 1.12 µM (active)

CCOC(=O)C1=C(NC(=O)c2ccc(S(=O)(=O)N(C)C)cc2)Nc2ccccc2N=C1CC
IC50 (H9c2): > 79 µM (inactive)

Cc1ccc(NC(=O)c2cccs2)cc1NC(=O)c1ccco1
IC50 (Protein skinhead-1): > 100 µM (inactive)

O=C1c2ccccc2C(=O)c2c1ccc(C(=O)N1CCCCC1)c2NCCO
IC50 (Protein skinhead-1): > 100 µM (inactive)

CCc1nc2ccc(C(=O)NCc3cccs3)cn2c1N(C)Cc1nccs1
IC50 (H9c2): 12.8 µM (active)

Cc1nn(C)c(=O)n1-c1ccc(OCc2ccccc2)cc1
EC50 [8]: 49.9 µM (active) | EC50 (H4): 12.9 µM (active) | EC50 [9]: 8.8 µM (active)

CCC(=O)N1CCN(c2ccccc2NC(=O)c2ccc(-c3cccc([N+](=O)[O-])c3)o2)CC1
IC50 (H9c2): > 79 µM (inactive)

COc1cc(C(=O)N/N=C/c2ccc(OC(=O)c3ccccc3)c(OC)c2)ccc1O
IC50 (H9c2): > 79 µM (inactive)

Cn1c(=O)c2c(nc(NCc3cccnc3)n2Cc2cccc(C(F)(F)F)c2)n(C)c1=O
IC50 (H9c2): 14 µM (active)

Cc1ccc(NC(=O)/C(C#N)=C/c2cn(CC(=O)NCc3ccco3)c3ccccc23)cc1C
EC50 [5]: > 53 µM (inactive) | IC50 [6]: > 47.1 µM (inactive)

CC(C)(C)C(=O)Nc1ccc(C(=O)N/N=C/c2ccccc2OC(=O)c2ccccc2)cc1
IC50 (H9c2): 31.5 µM (inactive)

CCOC(=O)C1(CC2CCCCO2)CCN(Cc2nccn2-c2ccc(OC)cc2)CC1 (stereo not drawn)
EC50 [5]: > 53 µM (inactive) | IC50 [6]: > 47.1 µM (inactive)

Cc1ccc2nc(SCC(=O)N3CCOCC3)[nH]c2c1
EC50 [5]: > 53 µM (inactive) | IC50 [6]: > 47.1 µM (inactive)

CC(=O)Nc1ccc(S(=O)(=O)N2CCC(NC(C)=O)(c3cccc(F)c3)CC2)cc1
EC50 [5]: > 53 µM (inactive) | IC50 [6]: > 47.1 µM (inactive)

CCc1ccc(NC(=O)c2cc(-c3ccco3)on2)cc1
IC50 (Protein skinhead-1): > 100 µM (inactive)

CSc1cc(-c2ccco2)oc1C(=O)c1ccco1
EC50 [12]: > 260 µM (inactive) | IC50 (Protein skinhead-1): > 100 µM (inactive)

COc1ccc(CCC(=O)NCCS(=O)(=O)N2CCN(c3ccccc3OC)CC2)cc1
EC50 [8]: > 120 µM (not active) | EC50 (H4): > 120 µM (not active) | EC50 [9]: > 120 µM (not active)

Cc1sc2nc(CSCC(=O)N(C)c3ccccc3)nc(O)c2c1C
IC50 (H9c2): > 79 µM (inactive)

CN(CC(=O)NCc1ccc(F)cc1)S(=O)(=O)c1ccc(Br)s1
EC50 [5]: > 53 µM (inactive) | IC50 [6]: > 47.1 µM (inactive)

CC(C)(C)OC(=O)N1CCC(NC(=O)c2[nH]cnc2C(=O)NCC(=O)OCc2ccccc2)CC1
IC50 (H9c2): 47 µM (inactive)

CC1CCN(c2oc(-c3ccccc3F)nc2C#N)CC1
IC50 (Protein skinhead-1): > 100 µM (inactive)

CCOc1ccccc1N(CC(=O)N1CCC(C(N)=O)CC1)S(=O)(=O)c1ccc(SC)cc1
EC50 [5]: > 53 µM (inactive) | IC50 [6]: > 47.1 µM (inactive)

Cc1ccc(C(=O)c2c3ccccc3[n+]([O-])n2[C@@H](C)C(N)=O)cc1
EC50 [8]: 11.2 µM (active) | EC50 (H4): 38 µM (active) | EC50 [9]: 6.39 µM (active)

COc1ccccc1-n1c(C)cc(SC)c(C(C)=O)c1=S
EC50 [1]: 14 µM (active) | EC50 [2]: > 150 µM (inactive)

Cc1cc(C(=O)Nc2ccccc2C(=O)O)ccc1NC(=O)COc1cccc([N+](=O)[O-])c1
EC50 [1]: 3.79 µM (active) | EC50 [2]: 22.8 µM (inconclusive)
